{
  "source": "patent US9198988B2",
  "about": "“Nanoparticulate manganese MRI contrast agents” (Kent State University, priority 2011, dated 2015)",
  "origin": "cited, not measured here",
  "key": {"[1]": {"settings": "commercial MRI contrast agents"}, "[2]": {"settings": "commercial MRI contrast agents", "remark": "listed apart in the source"}},
  "data": [
    {"smiles": "O=C([O-])CN1CCN(CC(=O)[O-])CCN([C@H](CO)[C@H](O)CO)CCN(CC(=O)[O-])CC1.[Gd+3]", "note": "(racemic) [Gadovist ®]", "values": [
      {"measurement": "r1 (relaxivity)", "setting": "[1]", "result": 5.3, "unit": "mM⁻¹ s⁻¹"},
      {"measurement": "LogKGdL (stability constant)", "setting": "[2]", "result": 20.8}
    ]},
    {"smiles": "CNC[C@H](O)[C@@H](O)[C@H](O)[C@H](O)CO.O=C([O-])CN1CCN(CC(=O)[O-])CCN(CC(=O)O)CCN(CC(=O)[O-])CC1.[Gd+3]", "note": "[Dotarem ®]", "values": [
      {"measurement": "r1 (relaxivity)", "setting": "[1]", "result": 4.2, "unit": "mM⁻¹ s⁻¹"},
      {"measurement": "LogKGdL (stability constant)", "setting": "[2]", "result": 25.3}
    ]},
    {"smiles": "CNC[C@H](O)[C@@H](O)[C@H](O)[C@H](O)CO.CNC[C@H](O)[C@@H](O)[C@H](O)[C@H](O)CO.O=C([O-])CN(CCN(CC(=O)[O-])CC(=O)O)CCN(CC(=O)[O-])CC(=O)O.[Gd+3]", "note": "[Magnevist ®]", "values": [
      {"measurement": "r1 (relaxivity)", "setting": "[1]", "result": 4.3, "unit": "mM⁻¹ s⁻¹"},
      {"measurement": "LogKGdL (stability constant)", "setting": "[2]", "result": 22.2}
    ]},
    {"smiles": "CNC[C@H](O)[C@@H](O)[C@H](O)[C@H](O)CO.CNC[C@H](O)[C@@H](O)[C@H](O)[C@H](O)CO.O=C([O-])CN(CCN(CC(=O)[O-])CC(=O)O)CCN(CC(=O)O)C(COCc1ccccc1)C(=O)[O-].[Gd+3]", "note": "(centres unmarked) [MultiHance]", "values": [
      {"measurement": "r1 (relaxivity)", "setting": "[1]", "result": 6.7, "unit": "mM⁻¹ s⁻¹"},
      {"measurement": "LogKGdL (stability constant)", "setting": "[2]", "result": 18.4}
    ]},
    {"smiles": "CNC(=O)CN(CCN(CCN(CC(=O)[O-])CC(=O)NC)CC(=O)[O-])CC(=O)[O-].[Gd+3]", "note": "[Omniscan ®]", "values": [
      {"measurement": "r1 (relaxivity)", "setting": "[1]", "result": 4.6, "unit": "mM⁻¹ s⁻¹"},
      {"measurement": "LogKGdL (stability constant)", "setting": "[2]", "result": 16.8}
    ]},
    {"smiles": "COCCNC(=O)CN(CCN(CCN(CC(=O)[O-])CC(=O)NCCOC)CC(=O)[O-])CC(=O)[O-].[Gd+3]", "note": "[OptiMARK]", "values": [
      {"measurement": "r1 (relaxivity)", "setting": "[1]", "result": 5.2, "unit": "mM⁻¹ s⁻¹"},
      {"measurement": "LogKGdL (stability constant)", "setting": "[2]", "result": 16.8}
    ]},
    {"smiles": "CCOc1ccc(CC(CN(CCN(CC(=O)[O-])CC(=O)[O-])CC(=O)[O-])N(CC(=O)[O-])CC(=O)[O-])cc1.[Gd+3].[Na+].[Na+]", "note": "(centres unmarked) [Primovist]", "values": [
      {"measurement": "r1 (relaxivity)", "setting": "[1]", "result": 7.3, "unit": "mM⁻¹ s⁻¹"},
      {"measurement": "LogKGdL (stability constant)", "setting": "[2]", "result": 23.5}
    ]},
    {"smiles": "CC(O)CN1CCN(CC(=O)[O-])CCN(CC(=O)[O-])CCN(CC(=O)[O-])CC1.[Gd+3]", "note": "(centres unmarked) [ProHance ®]", "values": [
      {"measurement": "r1 (relaxivity)", "setting": "[1]", "result": 4.4, "unit": "mM⁻¹ s⁻¹"}
    ]},
    {"smiles": "O=C([O-])CN(CCN(CC(=O)[O-])CC(COP(=O)([O-])OC1CCC(c2ccccc2)(c2ccccc2)CC1)N(CC(=O)[O-])CC(=O)[O-])CC(=O)[O-].[Gd+3].[Na+].[Na+].[Na+]", "note": "(centres unmarked) [Vasovist]", "values": [
      {"measurement": "r1 (relaxivity)", "setting": "[1]", "result": 19, "unit": "mM⁻¹ s⁻¹"},
      {"measurement": "LogKGdL (stability constant)", "setting": "[2]", "result": 23.2}
    ]}
  ]
}
